Data on eight molecules can be found in patent US20050137194A1, “Combination of selected opioids with other active compounds for treatment of urinary incontinence” (Gruenenthal GmbH, priority 2002, published 2005).

This assay deals with naive, female Sprague-Dawley rats. In words: Cystometry test system on conscious naive rats. The following applies: for action on bladder regulation (in words): conscious naive rats, i.v.
Setting [1] is: 1.0 mg/kg iv, action maximum, mean of 3 micturition cycles.

Marks after values point to notes of the source that are not given here.

Consider `CC[C@](O)(c1cccc(OC)c1)[C@H](C)CN(C)C.Cl` [Compound 2, (+)-(2R,3R)-1-dimethylamino-3-(3-methoxy-phenyl)-2-methyl-pentan-3-ol, hydrochloride], for which the “action on bladder regulation (in words)” value was “effectively active”.
Take `C[C@H](CN(C)C)[C@@](C)(O)c1cccc(O)c1.Cl` (racemic) [Compound 8, (1RS,2RS)-3-(3-dimethylamino-1-hydroxy-1,2-dimethyl-propyl)-phenol, hydrochloride]: under setting [1], the “BC bladder capacity, change relative to the pre-value” was “+7%”; the “ICI intercontraction interval, change relative to the pre-value” is given as “+14.4%”; the “TP threshold pressure, change relative to the pre-value” is listed as “+60% **”.
For the molecule `CC[C@@](O)(c1cccc(OC)c1)[C@@H](C)CN(C)C.Cl` [Compound 21, (−)-(2S,3S)-1-dimethylamino-3-(3-methoxy-phenyl)-2-methyl-pentan-3-ol, hydrochloride], the “action on bladder regulation (in words)” value was “does not contribute to the action”.
For `CN(C)C[C@H]1CC[C@@H](O)C[C@]1(O)c1cccc(O)c1.Cl` (racemic) [Compound 26, (1RS,3RS,6RS)-6-dimethylaminomethyl-1-(3-hydroxy-phenyl)-cyclohexane-1,3-diol, hydrochloride], for the setting “3.0 mg/kg iv”, the “BC bladder capacity, change relative to the pre-value” was “+29.0% *”; the “ICI interconnection interval, change relative to the pre-value” was “+27.0% *”; the “TP threshold pressure, change relative to the pre-value” was “+86.0% ***”.
Take `COc1cccc([C@@]2(O)C[C@H](O)CC[C@@H]2CN(C)C)c1.Cl` (racemic) [Compound 24, (1RS,3RS,6RS)-6-dimethylaminomethyl-1-(3-methoxy-phenyl)-cyclohexane-1,3-diol, hydrochloride]: under setting [1], the “BC bladder capacity, change relative to the pre-value” is −8.0%; the “ICI intercontraction interval, change relative to the pre-value” was −15% **; the “TP threshold pressure, change relative to the pre-value” is on record as “+44.0% ***”. Also, for the setting “3.0 mg/kg iv”, the “BC bladder capacity, change relative to the pre-value” is reported as −16.0% *; the “ICI interconnection interval, change relative to the pre-value” is listed as −16% *; the “TP threshold pressure, change relative to the pre-value” is “+94.0% **”. Under “5.0 mg/kg iv”, the “BC bladder capacity, change relative to the pre-value” is recorded as −26.0% *; the “ICI interconnection interval, change relative to the pre-value” is reported as −21.2%; the “TP threshold pressure, change relative to the pre-value” is “+69.0% *”.
Take `C[C@H](CN(C)C)[C@@](C)(O)c1cccc(O)c1.Cl` [Compound 9, (+)-(1R,2R)-3-(3-dimethylamino-1-hydroxy-1,2-dimethyl-propyl)-phenol, hydrochloride]: under “0.5 mg/kg iv”, the “BC bladder capacity, change relative to the pre-value” is “+50% **”; the “ICI intercontraction interval, change relative to the pre-value” is reported as “+21% *”; the “TP threshold pressure, change relative to the pre-value” is listed as “+56% **”.
Consider `COc1cccc([C@@]2(O)C[C@H](O)CC[C@@H]2CN(C)C)c1.Cl` [Compound 25, (+)-(1R,3R,6R)-6-dimethylaminomethyl-1-(3-methoxy-phenyl)-cyclohexane-1,3-diol, hydrochloride], for which, where the note is “1.5 mg/kg iv”, the “BC bladder capacity, change relative to the pre-value” is −14.0% *; the “ICI interconnection interval, change relative to the pre-value” is −9.0 * %; the “TP threshold pressure, change relative to the pre-value” is reported as “+62.0% *”.
With `CCC(O)(c1cccc(O)c1)C(C)CN(C)C.Cl` (racemic) [Compound 7, (2RS,3RS)-3-(3-dimethylamino-1-ethyl-1-hydroxy-2-methyl-propyl)-phenol, hydrochloride], under “0.3 mg/kg iv”, the “BC bladder capacity, change relative to the pre-value” was “+32% *”; the “ICI intercontraction interval, change relative to the pre-value” is “+28% *”; the “TP threshold pressure, change relative to the pre-value” was “+95% **”.
